The results in this text go back to patent US10597430B2, “Chimeric gene for heterologous expression which encodes for peptides with antimicrobial activity” (Instituto de Investigaciones Agropecuarias, priority 2013, dated 2020).

What all share (assay type): cell-based
The subject of test [1] is Xanthomona campestris. Put plainly: Growth inhibition assay at different concentrations of peptide rAp-S (specific growth rate, OD600). The settings on record: control 0.385. The procedure:
(§1) Growth Inhibition Assays at Different Concentrations of Peptide rAp-S: The inoculation of 5 mL of LB was performed with 100 μL of bacteria (Xanthomona campestris and Clavibacter michiganensis), followed by overnight culturing. The absorbance was quantified at OD600. Once the Abs was quantified, dilutions were made to obtain an Abs to inoculate each tube with the same concentration of bacteria with an initial OD600 of 0.04. Different peptide concentrations were used. A final volume of 10 mL in a 50 mL tube was used. In addition, a control without peptide was used for each bacterium. The kinetics of the process was followed for 8 h from time zero, determining the Abs every 2 h. The data were logarithmically transformed for the exponential phase of kinetics, and a linear regression was performed on the transformed data. The slope of the regression is the specific growth rate of the bacteria: μ (h^−1).

The test system of test [2] is Clavibacter michiganensis. The description is as above. To be noted: control 0.072. The procedure:
as §1

The test system of test [3] is Fusarium oxysporum. Briefly: Antifungal growth assay on PDA agar supplemented with peptide (spore count, mycelium area). To be noted: respectively. As to the method:
(§2) a) Evaluation of Peptides obtained in E coli: Isolates from Botrytis cinerea, Fusarium oxysporum, Trichoderma harzianum and Alternaria spp. were treated with the purified fractions of the digested and non-digested peptides (pre-TEV/rAp-S and rAp-S) derived from the selected recombinant clone of E. coli (Example 3).
(§3) The potential antifungal abilities of both peptides were evaluated by analysis of the growth patterns of these fungi on agar PDA (potato-dextrose) in Petri dishes supplemented with protein extracts at 500 μg/L (162 nM) and 250 μg/L (81 nM), respectively.
(§4) The control growth assays were performed on PDA dishes without peptides. The growth patterns were evaluated according the amount of time required for the fungi to reach the dish walls in the control plates (10 days after inoculation in darkness at room temperature). Structural images of the fungi hyphae patterns were obtained using a Olympus® microscope (Center Valley, Pa., USA), and spores were counted using a Neubauer […] (Brand®, Wertheim, Germany) at 40×. The data were subjected to analyses of variance, and averages were separated by the least significant difference test (LSD) at the 5% level of significance using Statgraphics Centurion XV (Manμistics Inc., Rockville, Md., USA). Petri dishes containing grown fungi were scanned and digitalized for statistical processing. The area of the mycelia was quantified using Gel-Pro Analyzer 4.0 (Media Cybernetics, Minneapolis, Minn., USA), and surface values in pixels were transferred to Excel (Microsoft Corporation, USA) for analysis. The average value of the colored haloes was calculated using scanned images of five repetitions on the tenth day after inoculation. The collected data were subjected to variance analysis, and the averages separated by LSD at the 5% level of significance.

Test [4] concerns Alternaria sp. The description is as above. The settings on record: respectively. The procedure:
as §2, §3, §4

Test [5] deals with Botrytis cinerea. The description is as above. The settings on record: respectively. As to the method:
as §2, §3, §4

In test [6] the test system is Trichoderma harzianum. Described as above. To be noted: respectively. As to the method:
as §2, §3, §4

Setting [7] is: PDA supplemented with pre-TEV/rAp-S 500 μg/L (162 nM) and rAp-S 250 μg/L (81 nM), 10 days after inoculation.
Setting [8] is: PDA supplemented with pre-TEV/rAp-S 500 μg/L and rAp-S 250 μg/L, tenth day after inoculation.

With “rAp-S: recombinant version of antimicrobial peptide Ap-S, 31 amino acids MPVGIVIAPKKSPFTAKKPGPVLSGVKAGPG (SEQ ID No. 9), released by TEV protease digestion (listed as Argopecten purpuratus)”, the “Specific growth rate μ” value in test [1] (peptide 1 μg/L) is 0.371 h⁻¹; in test [1] (peptide 10 μg/L) it was 0.375 h⁻¹; in test [1] (peptide 100 μg/L), 0.386 h⁻¹; in test [1] (peptide 1 mg/L), 0.329 h⁻¹; in test [1] (peptide 2 mg/L), 0.015 h⁻¹; in test [1] (peptide 3 mg/L) it was -0.012 h⁻¹. Also, the “Specific growth rate μ” value in test [1] (peptide 4 mg/L) was -0.019 h⁻¹; in test [2] (peptide 1 μg/L), 0.070 h⁻¹; in test [2] (peptide 10 μg/L) it was 0.069 h⁻¹; in test [2] (peptide 100 μg/L) it was 0.075 h⁻¹; in test [2] (peptide 1 mg/L), 0.069 h⁻¹; in test [2] (peptide 2 mg/L), 0.069 h⁻¹. The “Specific growth rate μ” value came out at 0.073 h⁻¹ in test [2] (peptide 3 mg/L), 0.066 h⁻¹ in test [2] (peptide 4 mg/L), 0.009 h⁻¹ in test [2] (peptide 12.5 mg/L) and 0.003 h⁻¹ in test [2] (peptide 15.5 mg/L). Further, the “Spore count, Average” value in test [3] (setting [7]) was 7.6 × 10^5; in test [4] (setting [7]) it was 0; in test [5] (setting [7]), 1.02 × 10^6; in test [6] (setting [7]), 5.0 × 10^6. The “Central area of the mycelium, Average” value is reported as 511699 pixeles in test [3] (setting [8]), 412403 pixeles in test [4] (setting [8]), 170781 pixeles in test [5] (setting [8]) and 85718 pixeles in test [6] (setting [8]).
